Consider 28 molecules from PubChem BioAssay (NCI).

SMILES strings stand for the structures.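 Results reflect a 48-hour exposure of cells in 96-well plates to compound at five concentrations. The concentration for 50% growth inhibition is given as GI50. Definition used: TGI = concentration required for complete inhibition of growth.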 Bounds are passed on as bounds.

The first test concerns OVCAR-3 ovarian. As to the kind of experiment: NCI anticancer screen, dose series, 48 h.
`N#C/C(=C1\SC(N=Nc2ccc(Cl)cc2)C(=O)N1c1ccccc1)c1nc2ccccc2[nH]1` (configuration not stated): the TGI is 69 µM.

Regarding `c1ccc2[nH]c(CNc3ccc(C4C[Se]N=N4)cc3)nc2c1` (configuration not stated), the TGI was 96.9 µM.

For the molecule `COc1ccc(Oc2cnn(C(Br)(Br)C(C)=O)c(=O)c2Br)cc1`, the TGI was 13.6 µM.

Turning to `O=S1(=O)c2cnccc2NC(=NCc2ccccc2)N1c1ccccc1`, the TGI was > 100 µM.

On to `Cc1ccc2oc(=O)c(-c3ccccc3)nc2c1`, for which the TGI is > 100 µM.

Consider `O=C(O)/C=C\C(=O)Nc1ccc(S(=O)(=O)c2ccc(NC(=O)/C=C\C(=O)O)cc2)cc1`, for which the TGI was > 100 µM.

`CN(C)CCCNC(=O)c1c(O)c2ccccc2n(C)c1=O`: the TGI was > 100 µM.

For `COc1ccc(-n2nc(C)c3c(Nc4ccc(NC(=O)Nc5ccc(Cl)c(C(F)(F)F)c5)cc4)ncnc32)cc1`, the GI50 is 1.98 µM and the TGI was determined as 5.91 µM.

In the case of `C[C@]12CC[C@@H]3c4ccc(O)cc4CC[C@H]3[C@@H]1C/C(=C\c1ccc(C#N)cc1)C2=O`, the TGI is > 100 µM.

`CC1(C)CC(C#Cc2ccccc2)CC(C)(C)N1O` displayed a TGI of 37.4 µM.

The molecule `Cc1cc(O)c(-c2cc(O)c(C)cc2O)cc1O` gave a TGI of 5.12 µM.

Consider `O=C(O)CN(CC(=O)O)C(C(=O)O)c1ccccc1` (configuration not stated), for which the TGI is > 100 µM.

For `CCNc1ncnc2sc(SCc3ccccc3)nc12`, the TGI is > 100 µM.

On to `S=C1NC2=C(CSC/C2=C\c2ccccc2)C(c2ccccc2)N1` (configuration not stated), for which the TGI is > 100 µM.

In the case of `O=C(OCC1OC(n2nc(Cn3nnc(-c4cccnc4)n3)n(-c3cccc4ccccc34)c2=S)C(OC(=O)c2ccccc2)C1OC(=O)c1ccccc1)c1ccccc1` (configuration not stated), the TGI is > 100 µM.

`COc1ccc(/C=N/n2c(C)nc3c(sc(=S)n3-c3ccccc3)c2=O)cc1`: the TGI is > 100 µM.

Take `CCN1C(=O)C(=C/C=C/c2ccc(N(CC)CC)cc2)C(=O)N(CC)C1=S`: the TGI was determined as 54.9 µM.

In the case of `CSc1nc2c(ncn2C2OC(CO)C(O)C(O)C2O)c(=O)[nH]1` (configuration not stated), the TGI was > 100 µM.

In turn, `Nc1ccccc1C(=O)C(Br)C(Br)c1ccc2c(c1)OCO2` (configuration not stated) yielded a TGI of 36.1 µM.

The molecule `CC(C)C1=C(O)C2=C(C(=O)C1=O)C1(C)CCCC(C)(C)C1C(O)C2OC=O` (configuration not stated) had a TGI of 25.9 µM.

For `CCCCCCCCCCCC1CC(=O)NCCCN(C)CCCCN(C)CCCN1C` (configuration not stated), the TGI came to 3.07 µM.

The molecule `CC(C)[Si](OC/C(=C/COC(C)(C)C)[C@H]1CC=C(C(=O)c2ccccc2N2CN(C)C(=O)N(C)C2)C1)(C(C)C)C(C)C` returned a TGI of 25 µM.

For `COc1cc(C2c3cc4c(cc3[C@@H](Nc3ccc5c(c3)OCO5)C3COC(=O)[C@H]23)OCO4)cc(OC)c1O` (some centres not stated), the TGI is 22.2 µM.

Consider `COc1ccc2c(c1)c(=O)c1c(NCCNCCO)ccc3c(=O)n(CCN(C)C)c(=O)n2c31`, for which the TGI is 4.62 µM.

The molecule `CC(C)N1CN(c2ccccc2)C2(CCN(CCCC(=O)c3ccc(F)cc3)CC2)C1=O` returned a TGI of 65.6 µM.

Take `CC(C)=CCC[C@@H](C)C1=C(O)C(N)=C(C)C(=O)C1=O`: the TGI is > 100 µM.

In the case of `CCOC(=O)C1=CC(C)(C(=O)OCC)Nc2c(nc(N)[nH]c2=O)N1` (configuration not stated), the TGI is > 10 µM.

The next test relates to UACC-257 melanoma. As to the kind of experiment: NCI anticancer screen, dose series, 48 h.
In turn, `N#C/C(=C1\SC(N=Nc2ccc(Cl)cc2)C(=O)N1c1ccccc1)c1nc2ccccc2[nH]1` (configuration not stated) returned a TGI of 92.6 µM.

`O=C(NN1C(=O)CSC1c1cccc(F)c1)c1ccncc1` (configuration not stated): the TGI is > 100 µM.

For the molecule `COc1ccc(Oc2cnn(C(Br)(Br)C(C)=O)c(=O)c2Br)cc1`, the TGI is 28.5 µM.

In the case of `O=S1(=O)c2cnccc2NC(=NCc2ccccc2)N1c1ccccc1`, the TGI was > 100 µM.

For `Cc1ccc2oc(=O)c(-c3ccccc3)nc2c1`, the TGI was > 100 µM.

`O=C(O)/C=C\C(=O)Nc1ccc(S(=O)(=O)c2ccc(NC(=O)/C=C\C(=O)O)cc2)cc1`: the TGI is > 100 µM.

On to `CN(C)CCCNC(=O)c1c(O)c2ccccc2n(C)c1=O`, for which the TGI is > 100 µM.

For `COc1ccc(-n2nc(C)c3c(Nc4ccc(NC(=O)Nc5ccc(Cl)c(C(F)(F)F)c5)cc4)ncnc32)cc1`, the GI50 is 1.88 µM and the TGI came to 4.66 µM.

For the molecule `C[C@]12CC[C@@H]3c4ccc(O)cc4CC[C@H]3[C@@H]1C/C(=C\c1ccc(C#N)cc1)C2=O`, the TGI is > 100 µM.

As to `CC1(C)CC(C#Cc2ccccc2)CC(C)(C)N1O`, the TGI was found to be 33 µM.

On to `Cc1cc(O)c(-c2cc(O)c(C)cc2O)cc1O`, for which the TGI was 20.1 µM.

Regarding `O=C(O)CN(CC(=O)O)C(C(=O)O)c1ccccc1` (configuration not stated), the TGI is > 100 µM.

For `CCNc1ncnc2sc(SCc3ccccc3)nc12`, the TGI was > 100 µM.

In turn, `S=C1NC2=C(CSC/C2=C\c2ccccc2)C(c2ccccc2)N1` (configuration not stated) showed a TGI of 58.8 µM.

Turning to `O=C(OCC1OC(n2nc(Cn3nnc(-c4cccnc4)n3)n(-c3cccc4ccccc34)c2=S)C(OC(=O)c2ccccc2)C1OC(=O)c1ccccc1)c1ccccc1` (configuration not stated), the TGI was > 100 µM.

On to `COc1ccc(/C=N/n2c(C)nc3c(sc(=S)n3-c3ccccc3)c2=O)cc1`, for which the TGI is > 100 µM.

Turning to `CCN1C(=O)C(=C/C=C/c2ccc(N(CC)CC)cc2)C(=O)N(CC)C1=S`, the TGI is > 100 µM.

For the molecule `CSc1nc2c(ncn2C2OC(CO)C(O)C(O)C2O)c(=O)[nH]1` (configuration not stated), the TGI is > 100 µM.

Molecule `Nc1ccccc1C(=O)C(Br)C(Br)c1ccc2c(c1)OCO2` (configuration not stated) displayed a TGI of 44.9 µM.

As for `CC(C)C1=C(O)C2=C(C(=O)C1=O)C1(C)CCCC(C)(C)C1C(O)C2OC=O` (configuration not stated), the TGI stood at 21.6 µM.

For `CCCCCCCCCCCC1CC(=O)NCCCN(C)CCCCN(C)CCCN1C` (configuration not stated), the TGI came to 3.06 µM.

`CC(C)[Si](OC/C(=C/COC(C)(C)C)[C@H]1CC=C(C(=O)c2ccccc2N2CN(C)C(=O)N(C)C2)C1)(C(C)C)C(C)C` displayed a TGI of 23.9 µM.

In the case of `COc1cc(C2c3cc4c(cc3[C@@H](Nc3ccc5c(c3)OCO5)C3COC(=O)[C@H]23)OCO4)cc(OC)c1O` (some centres not stated), the TGI turned out to be 8.38 µM.

Consider `COc1ccc2c(c1)c(=O)c1c(NCCNCCO)ccc3c(=O)n(CCN(C)C)c(=O)n2c31`, for which the TGI was determined as 1.06 µM.

Turning to `CC(C)N1CN(c2ccccc2)C2(CCN(CCCC(=O)c3ccc(F)cc3)CC2)C1=O`, the TGI was determined as 8.94 µM.

Regarding `CC(C)=CCC[C@@H](C)C1=C(O)C(N)=C(C)C(=O)C1=O`, the TGI was > 100 µM.

In the case of `CCOC(=O)C1=CC(C)(C(=O)OCC)Nc2c(nc(N)[nH]c2=O)N1` (configuration not stated), the TGI is > 10 µM.

Another test deals with LXFL 529 NSCLC. In words: NCI anticancer screen, dose series, 48 h.
As for `N#C/C(=C1\SC(N=Nc2ccc(Cl)cc2)C(=O)N1c1ccccc1)c1nc2ccccc2[nH]1` (configuration not stated), the TGI is > 100 µM.

Turning to `O=C(NN1C(=O)CSC1c1cccc(F)c1)c1ccncc1` (configuration not stated), the TGI is > 100 µM.

As to `c1ccc2[nH]c(CNc3ccc(C4C[Se]N=N4)cc3)nc2c1` (configuration not stated), the TGI turned out to be 67.7 µM.

As for `O=C(O)/C=C\C(=O)Nc1ccc(S(=O)(=O)c2ccc(NC(=O)/C=C\C(=O)O)cc2)cc1`, the TGI is > 100 µM.

Turning to `COc1ccc(/C=N/n2c(C)nc3c(sc(=S)n3-c3ccccc3)c2=O)cc1`, the TGI was > 100 µM.

`Nc1ccccc1C(=O)C(Br)C(Br)c1ccc2c(c1)OCO2` (configuration not stated) had a TGI of 46 µM.
